Results taken from ChEMBL document CHEMBL1131209 (J Med Chem, 1998).

How the values were obtained:
D(2) dopamine receptor = D(2) dopamine receptor (Rattus norvegicus, UniProt P61169); assay: Compound was tested for its binding affinity towards Dopamine receptor D2 using [3H]spiperone from rat striatum
[1] = molecular target: Serotonin 2 (5-HT2) receptor; assay: Compound was tested for its binding affinity towards 5-hydroxytryptamine 2 receptor using [3H]ketanserin from guinea pig frontal cortex; assay type: tissue-based, Cavia porcellus
[2] = molecular target: T1, Alpha-1A adrenergic receptor (Rattus norvegicus, UniProt P43140); assay: Compound was tested for its binding affinity towards Alpha-1A adrenergic receptor using [3H]prazosin from rat submaxillary gland
T1 sequence (P43140 whole entry): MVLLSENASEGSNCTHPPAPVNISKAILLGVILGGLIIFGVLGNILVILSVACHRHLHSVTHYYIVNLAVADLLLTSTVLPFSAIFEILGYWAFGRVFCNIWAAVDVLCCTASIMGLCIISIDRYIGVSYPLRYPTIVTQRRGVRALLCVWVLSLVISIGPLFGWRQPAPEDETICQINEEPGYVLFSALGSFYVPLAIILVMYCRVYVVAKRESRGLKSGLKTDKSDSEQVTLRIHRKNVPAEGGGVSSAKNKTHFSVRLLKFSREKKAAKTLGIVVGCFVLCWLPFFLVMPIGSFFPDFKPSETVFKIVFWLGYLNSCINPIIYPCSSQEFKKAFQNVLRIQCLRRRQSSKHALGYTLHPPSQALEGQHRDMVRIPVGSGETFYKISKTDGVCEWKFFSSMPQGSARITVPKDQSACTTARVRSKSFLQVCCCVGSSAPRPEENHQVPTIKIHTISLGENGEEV

[3] = molecular target: T2, Alpha-1B adrenergic receptor (Rattus norvegicus, UniProt P15823); assay: Compound was tested for its binding affinity towards Alpha-1B adrenergic receptor using [3H]prazosin from rat liver
T2 sequence (P15823 whole entry): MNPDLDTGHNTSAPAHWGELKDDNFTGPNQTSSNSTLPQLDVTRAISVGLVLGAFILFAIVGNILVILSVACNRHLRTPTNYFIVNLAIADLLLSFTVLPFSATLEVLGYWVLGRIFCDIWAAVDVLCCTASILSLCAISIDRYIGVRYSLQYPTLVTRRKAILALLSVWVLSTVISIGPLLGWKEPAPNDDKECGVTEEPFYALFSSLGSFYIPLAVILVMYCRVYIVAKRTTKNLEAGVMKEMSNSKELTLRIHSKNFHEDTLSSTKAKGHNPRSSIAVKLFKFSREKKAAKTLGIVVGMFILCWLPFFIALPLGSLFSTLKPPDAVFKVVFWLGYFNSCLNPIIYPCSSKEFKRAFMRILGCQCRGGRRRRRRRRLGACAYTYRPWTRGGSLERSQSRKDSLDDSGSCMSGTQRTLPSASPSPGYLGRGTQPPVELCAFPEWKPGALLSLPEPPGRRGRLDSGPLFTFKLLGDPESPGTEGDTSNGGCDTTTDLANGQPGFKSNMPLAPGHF

[4] = molecular target: Glutamate receptor ionotropic, NMDA 2C (Rattus norvegicus, UniProt Q00961); assay: Compound was tested for its binding affinity towards PCP receptor using [3H](+)-NANM in the presence of 5 uM haloperidol from rat brain
[5] = molecular target: Muscarinic acetylcholine receptor M3 (Rattus norvegicus, UniProt P08483); assay: Compound was tested for its binding affinity towards Muscarinic acetylcholine receptor M3 using [3H]NMS from rat submaxillary gland
Opioid receptor = Opioid receptor (Rattus norvegicus, UniProt P33533+P34975+P33535); assay: Compound was tested for its binding affinity towards Opioid receptors using [3H]naloxone from rat whole brain
Sigma 2 receptor = assay: Binding affinity towards sigma 2 receptor using [3H]DTG in the presence of 200 nM (+)-NANM from guinea pig brain; parameters: species or system Cavia porcellus
[6] = molecular target: T3, Muscarinic acetylcholine receptor M2 (Rattus norvegicus, UniProt P10980); assay: Compound was tested for its binding affinity towards Muscarinic acetylcholine receptor M2 using [3H]NMS from rat heart
T3 sequence (P10980 whole entry): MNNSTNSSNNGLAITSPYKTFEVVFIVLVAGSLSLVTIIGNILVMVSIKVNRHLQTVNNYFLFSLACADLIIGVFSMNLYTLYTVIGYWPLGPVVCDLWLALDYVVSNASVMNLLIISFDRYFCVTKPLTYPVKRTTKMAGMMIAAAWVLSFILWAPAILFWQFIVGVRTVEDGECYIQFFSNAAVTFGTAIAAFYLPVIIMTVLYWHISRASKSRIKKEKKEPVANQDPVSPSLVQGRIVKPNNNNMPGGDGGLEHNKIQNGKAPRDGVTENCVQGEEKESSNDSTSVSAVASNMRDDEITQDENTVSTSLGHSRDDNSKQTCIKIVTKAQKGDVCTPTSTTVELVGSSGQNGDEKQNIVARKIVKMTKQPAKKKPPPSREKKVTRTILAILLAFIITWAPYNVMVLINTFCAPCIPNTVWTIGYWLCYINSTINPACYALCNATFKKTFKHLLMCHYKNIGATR

Chain of D(2) dopamine receptor (P61169 whole entry): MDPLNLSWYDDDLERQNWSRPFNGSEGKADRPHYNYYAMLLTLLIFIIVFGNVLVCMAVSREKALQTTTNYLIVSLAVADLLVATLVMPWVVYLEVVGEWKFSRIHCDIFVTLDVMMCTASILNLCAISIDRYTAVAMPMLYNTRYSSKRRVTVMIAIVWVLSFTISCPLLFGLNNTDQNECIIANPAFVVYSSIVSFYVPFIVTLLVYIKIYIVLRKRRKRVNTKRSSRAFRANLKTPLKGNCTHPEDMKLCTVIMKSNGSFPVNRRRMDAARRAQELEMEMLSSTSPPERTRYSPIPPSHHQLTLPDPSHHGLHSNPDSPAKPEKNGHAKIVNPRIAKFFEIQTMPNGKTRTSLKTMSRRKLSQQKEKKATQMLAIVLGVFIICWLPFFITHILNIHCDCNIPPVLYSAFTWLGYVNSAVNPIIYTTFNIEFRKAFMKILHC
Chain of Muscarinic acetylcholine receptor M3 (P08483 whole entry): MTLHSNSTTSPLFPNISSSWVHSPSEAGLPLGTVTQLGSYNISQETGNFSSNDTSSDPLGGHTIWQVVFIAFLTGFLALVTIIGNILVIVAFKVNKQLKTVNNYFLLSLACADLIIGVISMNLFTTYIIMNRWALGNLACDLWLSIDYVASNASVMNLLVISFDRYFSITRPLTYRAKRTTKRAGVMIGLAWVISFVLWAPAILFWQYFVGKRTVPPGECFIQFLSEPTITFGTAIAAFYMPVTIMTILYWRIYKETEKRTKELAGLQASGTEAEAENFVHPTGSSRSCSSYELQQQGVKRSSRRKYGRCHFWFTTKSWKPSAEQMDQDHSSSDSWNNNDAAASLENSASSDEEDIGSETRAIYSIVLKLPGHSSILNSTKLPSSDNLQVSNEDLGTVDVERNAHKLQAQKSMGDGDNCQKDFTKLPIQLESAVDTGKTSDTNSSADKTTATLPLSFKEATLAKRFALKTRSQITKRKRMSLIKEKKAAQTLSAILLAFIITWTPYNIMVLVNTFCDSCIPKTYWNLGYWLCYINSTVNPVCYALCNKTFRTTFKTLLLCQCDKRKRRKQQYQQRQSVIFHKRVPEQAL
Chain of Glutamate receptor ionotropic, NMDA 2C (Q00961 whole entry): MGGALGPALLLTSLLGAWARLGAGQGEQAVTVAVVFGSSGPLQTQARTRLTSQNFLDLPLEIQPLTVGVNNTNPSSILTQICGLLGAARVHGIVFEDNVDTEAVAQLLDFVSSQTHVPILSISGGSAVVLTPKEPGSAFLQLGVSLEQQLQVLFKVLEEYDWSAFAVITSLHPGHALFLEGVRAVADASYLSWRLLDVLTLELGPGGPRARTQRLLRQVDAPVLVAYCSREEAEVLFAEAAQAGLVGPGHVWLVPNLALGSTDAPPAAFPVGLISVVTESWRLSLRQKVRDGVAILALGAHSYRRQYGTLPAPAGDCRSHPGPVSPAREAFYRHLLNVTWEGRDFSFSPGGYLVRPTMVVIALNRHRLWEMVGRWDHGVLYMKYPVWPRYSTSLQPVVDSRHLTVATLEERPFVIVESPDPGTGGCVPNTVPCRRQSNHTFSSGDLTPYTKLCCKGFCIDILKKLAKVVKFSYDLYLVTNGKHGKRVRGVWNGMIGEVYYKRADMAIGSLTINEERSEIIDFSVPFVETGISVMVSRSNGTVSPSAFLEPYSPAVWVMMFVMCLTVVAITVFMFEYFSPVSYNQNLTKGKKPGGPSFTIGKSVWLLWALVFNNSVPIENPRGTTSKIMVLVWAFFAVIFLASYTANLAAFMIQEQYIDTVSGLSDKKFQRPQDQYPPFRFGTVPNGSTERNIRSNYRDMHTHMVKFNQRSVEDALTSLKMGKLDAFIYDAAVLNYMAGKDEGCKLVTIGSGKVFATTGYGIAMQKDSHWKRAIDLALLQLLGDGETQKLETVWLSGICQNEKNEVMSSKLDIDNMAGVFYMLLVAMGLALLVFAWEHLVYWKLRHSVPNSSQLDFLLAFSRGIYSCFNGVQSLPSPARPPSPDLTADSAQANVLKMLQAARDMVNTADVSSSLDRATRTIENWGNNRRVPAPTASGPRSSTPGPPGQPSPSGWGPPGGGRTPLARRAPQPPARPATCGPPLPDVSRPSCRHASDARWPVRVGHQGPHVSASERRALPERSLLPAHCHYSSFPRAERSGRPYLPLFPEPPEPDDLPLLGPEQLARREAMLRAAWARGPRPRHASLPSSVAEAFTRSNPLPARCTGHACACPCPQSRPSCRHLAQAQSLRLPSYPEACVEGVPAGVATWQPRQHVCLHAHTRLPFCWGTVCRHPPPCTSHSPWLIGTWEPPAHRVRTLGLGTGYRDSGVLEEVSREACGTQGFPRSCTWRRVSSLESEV

Row | SMILES | Ki (D(2) dopamine receptor) [µM] | Ki [1] [µM] | Ki [2] [µM] | Ki [3] [µM] | Ki [4] [µM] | Ki [5] [µM] | Ki (Opioid receptor) [µM] | Ki (Sigma 2 receptor) [µM] | Ki [6] [µM]
1 | [O-][S+]1c2ccccc2CCC12CCN(Cc1ccccc1)CC2 (stereo unspecified) | > 10 | > 10 | > 10 | > 10 | > 10 | > 10 | > 10 | 1.7 | > 10
2 | c1ccc(CN2CCC3(CCc4ccccc4O3)CC2)cc1 | > 10 | > 10 | > 10 | > 10 | > 10 | > 10 | > 10 | 0.022 | > 10
3 | O=S1(=O)c2ccccc2CCC12CCN(Cc1ccccc1)CC2 | > 10 | > 10 | > 10 | > 10 | > 10 | > 10 | > 10 | 1.8 | > 10
4 | c1ccc(CN2CCC3(CCc4ccccc4S3)CC2)cc1 | 10.4 | 7.6 | > 10 | > 10 | > 10 | > 10 | > 10 | 0.416 | 10.8
5 | O=C1c2ccccc2CCC12CCN(Cc1ccccc1)CC2 |  | 0.218 | > 10 | > 10 | > 10 | > 10 | > 10 | 0.01 | 2.7
6 | CN1CCN(C2=Nc3cc(Cl)ccc3Nc3ccccc32)CC1 [CLOZAPINE] |  |  |  |  |  |  |  | > 10 | 
7 | COc1ccccc1CNCCCCCCNCCCCCCCCNCCCCCCNCc1ccccc1OC [METHOCTRAMINE] |  |  |  |  |  | 0.998 |  |  | 
